Results as given in patent US10253039B2, “Inhibitors of bacterial DNA gyrase with efficacy against gram-negative bacteria” (priority 2014, dated 2019).
Converted amounts (≈) assume the structure as drawn.

How the values were obtained:
Format in all cases: cell-based
[1] = system: E. coli BW25113; assay: MIC, microdilution in 96-well plates; conditions: Escherichia coli, BW25113, B: E. coli BW25113; read-out: MIC
Outline: (§1)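 Inoculum 1:10000 (LB, log-phase subculture). Triplicate twofold dilutions plus DMSO column. 37° C., shaken, 16-18 h. Lowest non-turbid well = MIC. CLSI method.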

[2] = system: Edwardsiella tarda; assay: MIC, microdilution in 96-well plates; conditions: D: Edwardsiella tarda
Outline: as §1

[3] = system: Staphylococcus saprophyticus subsp. saprophyticus; assay: MIC, 20-strain panel
Outline: as §1

[4] = system: E. coli MG1655; assay: MIC, 20-strain panel; conditions: Escherichia coli, MG1655, A: E. coli MG1655; read-out: MIC
Outline: as §1

[5] = system: Klebsiella pneumoniae subsp. pneumoniae; assay: MIC, 20-strain panel; conditions: E: Klebsiella pneumoniae subsp. pneumoniae
Outline: as §1

[6] = system: Staphylococcus aureus subsp. aureus; assay: MIC, 20-strain panel; conditions: H: Staphylococcus aureus subsp. aureus, read-out: MIC
Outline: as §1

[7] = system: E. coli JW5503 (deltolC); assay: MIC, 20-strain panel; conditions: Escherichia coli, C: E. coli JW5503 (deltolC)
Outline: as §1

[8] = system: Staphylococcus epidermidis; assay: MIC, 20-strain panel
Outline: as §1

[9] = system: Streptococcus pyogenes; assay: MIC, 20-strain panel
Outline: as §1

[10] = system: Streptococcus agalactiae; assay: MIC, 20-strain panel
Outline: as §1

[11] = system: Salmonella enterica subsp. enterica typhimurium; assay: MIC, 20-strain panel; conditions: F: Salmonella enterica subsp. enterica Typhimurium
Outline: as §1

[12] = system: Shigella flexneri; assay: MIC, 20-strain panel; conditions: G: Shigella flexneri
Outline: as §1

SMILES	MIC [1] [µg/mL]	MIC [2] [µg/mL]	MIC [3] [µg/mL]	MIC [4] [µg/mL]	MIC [5] [µg/mL]	MIC [6] [µg/mL]	MIC [7] [µg/mL]	MIC [8] [µg/mL]	MIC [9] [µg/mL]	MIC [10] [µg/mL]	MIC [11] [µg/mL]	MIC [12] [µg/mL]
O=C1CCCN1c1ccc(CN2CC[C@@H](NS(=O)(=O)c3cccc(C(F)(F)F)c3)C2)cc1 [Compound 99]	> 8	> 8	> 8	> 8	> 8	> 8	2 (≈ 4.28 µM)	> 8	> 8	> 8	> 8	> 8
O=C1CCCN1c1ccc(CN2CC[C@@H](NS(=O)(=O)c3cccc(OC(F)(F)F)c3)C2)cc1 [Compound 100]	> 8	> 8	> 8	> 8	> 8	> 8	2 (≈ 4.14 µM)	> 8	> 8	> 8	> 8	> 8
N#Cc1cccc(S(=O)(=O)N[C@@H]2CCN(Cc3ccc(-c4ccc(Cl)cc4)cc3)C2)c1 [Compound 101]	> 8	> 8	> 8	> 8	> 8	~8 (≈ 17.7 µM)	2 (≈ 4.42 µM)	8 (≈ 17.7 µM)	> 8	> 8	> 8	> 8
O=S(=O)(N[C@@H]1CCN(Cc2ccc(-c3ccc(Cl)cc3)cc2)C1)c1cccc(C(F)(F)F)c1 [Compound 102]	> 8	> 8	> 8	> 8	> 8	8 (≈ 16.2 µM)	~8 (≈ 16.2 µM)	4 (≈ 8.08 µM)	~8 (≈ 16.2 µM)	> 8	> 8	> 8
O=S(=O)(N[C@@H]1CCN(Cc2ccc(-c3ccc(Cl)cc3)cc2)C1)c1cccc(OC(F)(F)F)c1 [Compound 103]	> 8	> 8	> 8	> 8	> 8	8 (≈ 15.7 µM)	~8 (≈ 15.7 µM)	8 (≈ 15.7 µM)	~8 (≈ 15.7 µM)	> 8	> 8	> 8
O=S(=O)(N[C@@H]1CCN(Cc2ccc(OC3CC3)cc2)C1)c1cccnc1 [Compound 104]	> 8	> 8	> 8	> 8	> 8	> 8	> 8	> 8	> 8	> 8	> 8	> 8
O=S(=O)(N[C@@H]1CCN(Cc2ccc(-c3ccccc3)cc2)C1)c1cccc2cccnc12 [Compound 105]	> 8	> 8	> 8	> 8	> 8	> 8	0.125 (≈ 0.282 µM)	> 8	> 8	> 8	8 (≈ 18 µM)	> 8
O=S(=O)(N[C@@H]1CCN(Cc2ccc(OC(F)F)cc2)C1)c1cccc(OC(F)(F)F)c1 [Compound 106]	> 8	> 8	> 8	> 8	> 8	> 8	> 8	> 8	> 8	> 8	> 8	> 8
O=S(=O)(N[C@@H]1CCN(Cc2nc(-c3ccccc3)cs2)C1)c1cccc(OC(F)(F)F)c1 [Compound 107]	> 8	> 8	> 8	> 8	> 8	> 8	> 8	> 8	> 8	> 8	> 8	> 8
O=S(=O)(N[C@@H]1CCN(Cc2cn(-c3ccccc3)nn2)C1)c1cccc(C(F)(F)F)c1 [Compound 108]	> 8	> 8	> 8	> 8	> 8	> 8	> 8	> 8	> 8	> 8	> 8	> 8
N#Cc1cccc(S(=O)(=O)N[C@@H]2CCN(Cc3ccc(OC4CCC4)cc3)C2)c1 [Compound 109]	> 8	> 8	> 8	> 8	> 8	> 8	0.5 (≈ 1.21 µM)	> 8	> 8	> 8	8 (≈ 19.4 µM)	> 8
